Source: US20230405014A1, “USE OF AN IRAK4 MODULATOR FOR GENE THERAPY” (Genzyme Corporation, priority 2022, published 2023)

Columns and labels:
[1] = tested on: human monocytic dendritic cells; assay: Cytokine release from human monocytic dendritic cells co-treated with AAV and KT-474 (Luminex); format: cell-based; conditions: co-treatment with AAV at MOI 1e5, 24 hours, all KT-474 doses
Description: Preparation of Peripheral Blood Mononuclear Cells. Blood from leukopaks (Stem cell technologies) from different donors was decanted into 50 mL tubes and Dulbecco's phosphate buffered saline (DPBS) was added at a 1:1 ratio. The blood plus DBPS mix was gently pipetted into a separate 50 mL tube containing 15 mL Ficoll (GE17-5442-02) to ensure no mixing of the blood and Ficoll phases. The mixture was centrifuged at 2000 RPM for 25 minutes at room temperature (9 acceleration and no braking). The buffy coat containing the peripheral blood mononuclear cells (PBMCs) was collected, transferred to a new tube, and centrifuged for five minutes at 400 RCF. PBMCs were washed three times with phosphate buffered saline (PBS) containing 1% fetal bovine serum (FBS) or fetal calf serum (FCS) and counted.
Isolation of Monocytes. CD14+ monocytes were isolated from the PBMCs using CD14 MicroBeads following the manufacturer's protocol (Miltenyi Biotech, Germany, order no. 130-050-201, protocol available online world wide web miltenyibiotec.com/upload/assets/IM0001260.PDF). Briefly, PBMCs were incubated with […] CD14 MicroBeads per 10^7 total cells for 15 minutes at 2-8° C. PBMCs were applied onto a magnetic column (Miltenyi; world wide web miltenyibiotec.com/US-en/products/ls-columns.html #130-042-401) and unlabeled cells were allowed to pass through. After washing the column three times, the column was removed from the magnetic separator, (Miltneyi; world wide web miltenyibiotec.com/US-en/products/quadromacs-separator-and-starting-kits.html #130-091-051) placed on a collection tube, and magnetically labeled CD14+ monocytes were flushed out by pushing a plunger into the column.
Differentiation of Monocytes. […]
rAAV Production and Titration. rAAV vectors were produced using a standard triple transfection method (Sena-Esteves and Gao, Cold Spring Harb Protoc; doi:10.1101/pdb.top095513, 2020). All serotypes evaluated encode the same GFP transgene. Viruses were purified by cesium chloride ultracentrifugation and titrated using both silver staining and quantitative polymerase chain reaction (qPCR). […]

[2] = tested on: transgene LacZ specific CD8 T cells; assay: In vivo mouse model of AAV-induced immune response, LacZ tetramer staining; set-up: species or system C57BL/6J mice; conditions: KT-474 in chow 100 mg/kg from 15 days prior to intramuscular AAV
Description: In vivo mice experiments: C57BL/6J mice were purchased from Jackson Laboratories. 6-8-week male mice were divided into 3 groups—PBS group, AAV group and AAV+KT474 group all groups with 6 mice each. […] PBS group mice were injected intramuscularly with 100 ul PBS, AAV group was injected intramuscularly with 1e11 vg per quadricep muscle of both legs, 100 ul volume. AAV capsid used in the study had LacZ transgene. All animal experiments were conducted in accordance with the Institutional Animal Care and Use Committees at Sanofi, Framingham. Submandibular bleeds were performed weekly, and necropsy was performed three weeks post AAV injection.
The PBS and AAV only groups were fed regular chow and were bled on day 14 and necorpsied on day 21.
PBMC isolation 120 ul blood was collected in K2EDTA coated tubes. The blood was mixed with DBPS at 1:1 ration and pipetted into a separate tube containing Ficoll (GE17-5442-02) to ensure no mixing of the blood and Ficoll phases. The mixture was centrifuged at 2000 RPM for 25 minutes at room temperature (9 acceleration and no braking). […] PBMCs were washed three times with phosphate buffered saline (PBS) containing 1% fetal bovine serum (FBS) or fetal calf serum (FCS) and counted. The PBMC cells thus obtained were stained with different antibodies to quantify percentage of different immune cell subsets in peripheral blood. […]

[3] = tested on: primary human monocytic dendritic cells; assay: Cell viability of dendritic cells (Live/Dead staining, flow cytometry); format: cell-based; conditions: AAV at MOI 1e5 and KT-474 co-treated, 24 hours, at doses tested, three donors (FIG. 3)

For `Cn1c(=O)n(C2CCC(=O)NC2=O)c2cccc(C#CCOC3CCN(C[C@H]4CC[C@H](n5cc(NC(=O)c6cnn7ccc(N8C[C@H]9C[C@@H]8CO9)nc67)c(C(F)F)n5)CC4)CC3)c21` (stereo partly drawn) [KT-474], the “AAV-induced secretion of IL1b” value ([1]; three donors (FIG. 2A)) was “blocked”, the “AAV-induced secretion of IL6” value ([1]; three donors (FIG. 2B)) was “blocked” and the “AAV-induced secretion of TNFa” value ([1]; three donors (FIG. 2C)) was “blocked”. For the same molecule, the “LacZ tetramer positive (transgene LacZ specific) CD8 T cells in PBMCs” value ([2]; peripheral blood, 14 days post AAV injection (FIG. 6A)) was “reduced significantly”, the “LacZ tetramer positive (transgene LacZ specific) CD8 T cells in spleen” value ([2]; splenocytes, 21 days post AAV injection (FIG. 6B)) was “reduced significantly” and the “cellular toxicity (cell viability)” value [3] was “no cellular toxicity”.
